Values quoted from earlier work as cited in US20240115678A1, “PERSONALIZED […] CANCER THERAPY” (priority 2022, published 2024).

How the values were obtained:
NK cells = conditions: animal experiments
[1] = system: murine TECs and normal ECs; conditions: with up-regulation of MDR1 mRNA
[2] = system: neuroblastoma, bladder cancer, pancreatic cancer, mesothelioma, hepatoma cells; conditions: in vitro
[3] = system: battery of tumor cell lines; conditions: in vitro, combined with AA
[4] = system: rat PAIII androgen-independent syngeneic prostate cancer cell line; conditions: daily intraperitoneal for 30 days, evaluation at day 40
[5] = system: human xenografted glioma, overian, and neuroblastoma cells; conditions: immune deficient animals
HUVEC = conditions: in vitro
vascular cord formation = conditions: in vivo administration
S-180 sarcoma = conditions: parenteral administration
[6] = system: hypoxia inducible factor (HIF)-1
[7] = system: T cell, B cell and NK cells; conditions: high dose
ovarian cancer = conditions: whole trial
[8] = system: monocytes derived from human peripheral blood

CC(C)[C@]12O[C@H]1[C@@H]1O[C@]13[C@]1(O[C@H]1C[C@H]1C4=C(CC[C@@]13C)C(=O)OC4)[C@@H]2O [triptolide]
effect on Treg cells (Treg cells): inhibit Treg cells

arsenic trioxide
effect on Treg cells (Treg cells): inhibit Treg cells

Nc1ccn([C@@H]2O[C@H](CO)[C@@H](O)C2(F)F)c(=O)n1 [gemcitabine]
effect on Treg cells (Treg cells): inhibit Treg cells

Poly (IC)
effect on Herceptin activity (NK cells): augmentation of Herceptin activity

CC(=O)O[C@H]1C(=O)[C@@]2(C)[C@H]([C@H](OC(=O)c3ccccc3)[C@]3(O)C[C@H](OC(=O)[C@H](O)[C@@H](NC(=O)c4ccccc4)c4ccccc4)C(C)=C1C3(C)C)[C@]1(OC(C)=O)CO[C@@H]1C[C@@H]2O [paclitaxel]
resistance of TECs compared with normal ECs [1]: more resistant

O=P1(N(CCCl)CCCl)NCCCO1 (stereo not drawn) [cyclophosphamide]
effect on Treg cells (Treg cells): inhibit Treg cells

O=C1O[C@H]([C@@H](O)CO)C(O)=C1O [AA, ascorbic acid]
cytotoxic effects on cancer cells [2]: cytotoxic effects at pharmacologically achievable concentrations
cytotoxicity of Docetaxel, Epirubicin, Irinotecan and 5-FU [3]: Enhancement of cytotoxicity
pulmonary and lymphatic metastasis [4]: reduction in pulmonary and lymphatic metastasis
tumor growth [4]: significant inhibition of tumor growth
inhibition of xenografted cells [5]: successful in vivo inhibition
HUVEC proliferation (HUVEC): inhibits
neovascularization (neovascularization): suppressing neovascularization
vascular cord formation (vascular cord formation): suppressed vascular cord formation
angiogenesis and pro-angiogenic factors bFGF, VEGF, and MMP-2 (S-180 sarcoma): suppression
tumor growth (S-180 sarcoma): reduced tumor growth
activation of HIF-1 [6]: suppresses activation
NK cytotoxic activity [7]: inhibits
IL-2 secretion ([7]; in vitro): inhibits
T cell and B cell proliferative responses ([7]; in vitro): inhibits
T cell activating ability of dendritic cells (dendritic cells): inhibit

bevacizumab plus chemotherapy: Bevacizumab (Avastin), antibody which binds VEGF, given with chemotherapy
median progression free survival (PFS) (ovarian cancer; ovarian cancer patients): 6.8 months
median OS (ovarian cancer): 16.6 months
HR for overall survival (ovarian cancer; versus chemotherapy alone, 95 percent CI: 0.69, 1.14): 0.89

COc1cc2nccc(Oc3ccc(NC(=O)Nc4ccc(F)cc4F)c(F)c3)c2cc1OC [Ki8751]
tumor CM-induced MDR1 up-regulation (human microvascular ECs): blocked

CCOCc1nc2c(N)nc3ccccc3c2n1CC(C)(C)O [R-848]
FcgammaRI, FcgammaRIIa, and the common gamma-subunit [8]: upregulation
inhibitory FcgammaRIIb molecule [8]: profound downregulation
FcgammaR-mediated cytokine production ([8]; 12 hour exposure): increased
antibody-dependent cellular cytotoxicity by monocytes ([8]; 12 hour exposure): increased

B1: IL-12: stimulator of NK cells (protein, UniProt P29459 23-219; P29460 23-328, looked up)
Interleukin-12 subunit alpha: RNLPVATPDPGMFPCLHHSQNLLRAVSNMLQKARQTLEFYPCTSEEIDHEDITKDKTSTVEACLPLELTKNESCLNSRETSFITNGSCLASRKTSFMMALCLSSIYEDLKMYQVEFKTMNAKLLMDPKRQIFLDQNMLAVIDELMQALNFNSETVPQKSSLEEPDFYKTKIKLCILLHAFRIRAVTIDRVMSYLNAS
Interleukin-12 subunit beta: IWELKKDVYVVELDWYPDAPGEMVVLTCDTPEEDGITWTLDQSSEVLGSGKTLTIQVKEFGDAGQYTCHKGGEVLSHSLLLLHKKEDGIWSTDILKDQKEPKNKTFLRCEAKNYSGRFTCWWLTTISTDLTFSVKSSRGSSDPQGVTCGAATLSAERVRGDNKEYEYSVECQEDSACPAAEESLPIEVMVDAVHKLKYENYTSSFFIRDIIKPDPPKNLQLKPLKNSRQVEVSWEYPDTWSTPHSYFSLTFCVQVQGKSKREKKDRVFTDKTSATVICRKNASISVRAQDRYYSSSWSEWASVPCS
effect on Herceptin activity (NK cells): augmentation of Herceptin activity
